Ten molecules from EP3502109A1, “TRIAZOLE-PHENYL-THIAZOLE HETEROCYCLES AS INNOVATIVE INHIBITORS OF TRYPANOTHIONE REDUCTASE AND THEIR USE AS LEISHMANICIDES” (Consejo Superior De Investigaciones Científicas, priority 2017, dated 2019) can be followed below.

For experiment [1], the target named is Li-TryR dimeric form (Leishmania infantum, UniProt A4HSF7). As to the kind of experiment: Dimer quantitation assay (ELISA), Li-TryR monomer displacement. The experiment is classed as binding. The method, then: The stability of the Li-TryR dimeric form in the presence of the compounds was evaluated using an Enzyme-Linked ImmunoSorbent Assay (ELISA). Briefly a dual (HIS/FLAG) tagged Li-TryR (400 nM) was incubated in a dimerization buffer (200 µL 300 mM NaCl, 50 mM Tris pH 8.0) for 16 h at 37 °C with agitation and in a humid atmosphere in the presence of different peptide concentration (10 to 90 µM) in 1.5ml tubes. Next, the tubes were centrifuged at 30000 rcf and supernatants were disposed in anti-flag coated 96 well plates and incubated 30 min, at 37°C with gentle shaking. Then the plates were washed ten times with TTBS (Tween 0.1%, 2 mM Tris, 138 mM NaCl 138 pH 7.6) and incubated with diluted monoclonal α-HIS HRP conjugated antibody (200 µL, Abcam, Cambridge, UK) in BSA (5%) in TTBS for 1 h at room temperature. The plates were washed once again as previously described and 1,2-phenylenediamine dihydrochloride (OPD) substrate (100 µL, Dako, Glostrup, Denmark) prepared according to manufacturer's instructions was added. The enzymatic reaction was stopped after 10 min with H2SO4 (100 µL, 0.5 M) and the absorbances were measured at 490 nm in a VERSAmax microplate reader (Molecular Devices, California, USA). All the assays were conducted in triplicate in at least three independent experiments. Data were analyzed using a non-linear regression model with the Grafit6 software (Erithacus, Horley, Surrey, UK). Table 1. IC50 ± SEM values for target compounds of formula I-A and I-B in the oxidoreductase activity assays and in the Li-TryR monomer displacement
On the technique in general: ELISA stands for enzyme-linked immunosorbent assay.

The subject of experiment [2] is macrophage-differentiated THP-1 monocytes. The experiment is described as follows: Cytotoxicity assay, macrophage-differentiated THP-1 (crystal violet). The experiment is classed as cell-based. The settings on record: Homo sapiens, THP-1, 24 h; read-out: EC50 (µM) THP-1 dif. The procedure:
(§1) Human THP-1 monocytic cells were seeded at 1.2 x 10^5 cells/ml in 24-multidish plates (Nunc, Roskilde, Denmark) and differentiated to macrophages for 24 h in 1 ml of RPMI 1640 medium containing 10 ng/ml of phorbol 12-myristate 13-acetate (PMA) (Sigma-Aldrich, St. Louis, MO). Human HepG2 cells were seeded at 8 x 10^5 cells/ml in 24-multidish plates (Nunc, Roskilde, Denmark). After 24 h of drug treatment, both cell lines were washed with PBS and stained with violet crystal solution (0.2% in 2% ethanol) in for 10 min. at room temperature. After dye removal, cells were washed twice with water. Once dried, the wells were treated with 1% SDS for 30 min and the absorbance at 570nm was monitored in a plate reader. Table 2. EC50± SEM values for the compounds of formula I-A and I-B on L. infantum promastigotes, extracellular and intracellular amastigotes and cytotoxic activity in macrophage-differentiated THP-1 monocytes and HepG2 cell lines

Experiment [3] concerns the target recombinant Li-TryR (Leishmania infantum, UniProt A4HSF7). The experiment is described as follows: Li-TryR oxidoreductase activity assay. The experiment is classed as biochemical. The method, then:
Oxidoreductase activity was determined according to the method described by Hamilton et al. (Biochem. J., 2003, 369, 529-537). Briefly, reactions were carried out at 26 °C (250 µL) of HEPES pH 8.0 (40 mM) buffer containing EDTA (1 mM), NADPH (150 µM), NADP+ (30 µM), DTNB (25 µM), T[S]2 (1 µM), glicerol (0.02%), DMSO (1.5%) and recombinant Li-TryR (7 nM). […] Enzyme activity was monitored by the increase in absorbance at 412 nm for 1 h at 26 °C in a VERSAmax microplate reader (Molecular Devices, California, USA). All the assays were conducted in triplicate in at least three independent experiments. Data were analyzed using a non-linear regression model with the Grafit6 software (Erithacus, Horley, Surrey, UK).

In experiment [4] the test system is L. infantum axenic amastigotes. As to the kind of experiment: Leishmanicidal activity on axenic amastigotes (PI exclusion, flow cytometry). The experiment is classed as cell-based. Conditions: Leishmania infantum, 24 h. The method, then:
L. infantum axenic amastigotes were grown in M199 (Invitrogen, Leiden, The Netherlands) medium supplemented with 10% heat inactivated FCS, 1 g/L β-alanine, 100 mg/L L-asparagine, 200 mg/L sacarose, 50 mg/L sodium pyruvate, 320 mg/L malic acid, 40 mg/L fumaric acid, 70 mg/L succinic acid, 200 mg/L α-ketoglutaric acid, 300 mg/L citric acid, 1.1 g/L sodium bicarbonate, 5 g/L MES, 0.4 mg/L hemin, 10 mg/L gentamicine pH 5.4 at 37 °C. THP-1 cells were grown in RPMI-1640 medium (Gibco, Leiden, The Netherlands) supplemented with 10% heat inactivated FCS, antibiotics, 1 mM HEPES, 2 mM glutamine and 1 mM sodium pyruvate, pH 7.2 at 37 °C and 5% CO2.
(§2) Drug treatment of amastigotes was performed during the logarithmic growth phase at a concentration of 1×10^6 parasites/mL at 37 °C for 24 h. Drug treatment of promastigotes was performed during the logarithmic growth phase at a concentration of 2×10^6 parasites/mL at 26 °C for 24 h. The percentage of living cells was evaluated by flow cytometry by the propidium iodide (PI) exclusion method.^17 Drug concentrations ranged from 0.2 µM to 25 µM.
(In general: A flow cytometer gives signals particle by particle.)

For experiment [5], the system named is L. infantum promastigotes. The experiment is described as follows: Leishmanicidal activity on promastigotes (PI exclusion, flow cytometry). The experiment is classed as cell-based. Conditions: Leishmania infantum, 24 h. The method, then:
L. infantum promastigotes (MCAN/ES/ 89/IPZ229/1/89) were grown in RPMI-1640 medium (Sigma-Aldrich, St. Louis, MO, USA) supplemented with 10% heat-inactivated fetal calf serum (FCS), antibiotics, and 25 mm HEPES (pH 7.2) at 26 °C.
as §2

In experiment [6] the test system is HepG2 cells. As to the kind of experiment: Cytotoxicity assay, HepG2 (crystal violet). The settings on record: Homo sapiens, HepG2, 24 h. The experiment is classed as cell-based. The method, then: as §1
Experiment [7] deals with L. infantum intracellular amastigotes. The experiment is described as follows: Leishmania infection assay (intracellular amastigotes in THP-1 macrophages). Format: cell-based. Conditions: THP-1, 48 h. The procedure:
Human THP-1 monocytic cells were seeded at 1.2 x 10^5 cells/ml in 24-multidish plates (Nunc, Roskilde, Denmark) and differentiated to macrophages for 24 h in 1 ml of RPMI 1640 medium containing 10 ng/ml of phorbol 12-myristate 13-acetate (PMA) (Sigma-Aldrich, St. Louis, MO). Medium culture was removed, and 1.2 x 10^6 Leishmania amastigotes in 1 ml of THP-1 medium were added to each well. Four hours later, the medium with non-infective amastigotes was completely removed, washed 3 times with 1 phosphate-buffered saline (PBS), and replaced with new THP-1 medium and the corresponding treatment. After 48 h of treatment, medium was removed; THP-1 cells were washed 3 times with 1xPBS and detached with TrypLE Express (Invitrogen, Leiden, The Netherlands) according to the manufacturer's indications. Infection quantification was measured by flow cytometry. Drug concentrations ranged from 0.2 µM to 25 µM.

Where a name gives a salt, the structure may show the parent alone. Read-outs that look alike come from different tables or passages of the source.

Li-TryR dimeric form, sequence (A4HSF7 entry or part of it): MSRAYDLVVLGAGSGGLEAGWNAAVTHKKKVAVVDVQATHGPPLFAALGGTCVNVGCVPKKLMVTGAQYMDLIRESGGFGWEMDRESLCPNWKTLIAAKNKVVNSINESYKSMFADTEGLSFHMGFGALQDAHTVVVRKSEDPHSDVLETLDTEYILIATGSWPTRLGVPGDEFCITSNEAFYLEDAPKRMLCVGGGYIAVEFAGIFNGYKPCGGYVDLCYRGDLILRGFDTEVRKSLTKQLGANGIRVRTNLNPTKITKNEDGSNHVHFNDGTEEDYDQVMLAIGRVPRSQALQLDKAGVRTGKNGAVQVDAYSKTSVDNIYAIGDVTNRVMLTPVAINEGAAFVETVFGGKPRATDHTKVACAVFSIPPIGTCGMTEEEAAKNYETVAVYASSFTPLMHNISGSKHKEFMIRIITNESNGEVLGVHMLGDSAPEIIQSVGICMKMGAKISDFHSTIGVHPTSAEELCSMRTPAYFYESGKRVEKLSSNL
recombinant Li-TryR, sequence (A4HSF7 entry or part of it): as above

The IC50 is the concentration at which inhibition is half-maximal. A word on the EC50: it is the concentration giving half of the maximal effect. For the molecule `CC[n+]1nn(-c2ccc(-c3nc(CCc4ccc(-c5ccccc5)cc4)cs3)c(OCCN3CCNC3=O)c2)cc1CCCCN` [Compound 10f, 1-(4-(4-(2-([1,1'-Biphenyl]-4-yl)ethyl)thiazol-2-yl)-3-(2-(2-oxoimidazolidin-1-yl)ethoxy)phenyl)-4-(4-ammoniobutyl)-3-ethyl-1H-1,2,3-triazol-3-ium 2,2,2-trifluoroacetate trifluoromethanesulfonate], the IC50 in experiment [1] was 87.06 ± 0.1 µM; in experiment [3], 3.88 ± 0.55 µM. For the same molecule, the EC50 in experiment [2] was determined as 19.9 ± 1.1 µM; in experiment [4], 15.5 ± 0.7 µM; in experiment [5] it was 6.03 ± 0.49 µM; in experiment [6], 69.9 ± 2.97 µM.
As to `NCCCCc1cn(-c2ccc(-c3nc(CCc4ccccc4)cs3)c(OCCN3CCNC3=O)c2)nn1` [Compound 8e, 1-(2-(5-(4-(4-Aminobutyl)-1H-1,2,3-triazol-1-yl)-2-(4-phenethylthiazol-2-yl)phenoxy)ethyl)imidazolidin-2-one 2,2,2 trifluoroacetate], the concentration for a half-maximal effect (EC50) in experiment [2] was found to be 27.2 ± 1.2 µM; in experiment [7], 33.6 ± 1.5 µM; in experiment [4], 13.9 ± 0.6 µM; in experiment [5] it was 30.54 ± 0.16 µM; in experiment [6], 20.4 ± 2.37 µM.
For the molecule `C[n+]1nn(-c2ccc(-c3nc(CCc4ccc5c(c4)CCO5)cs3)c(OCCN3CCNC3=O)c2)cc1CCCCN` [Compound 10d, 4-(4-Ammoniobutyl)-1-(4-(4-(2-(2,3-dihydrobenzofuran-5-yl)ethyl)thiazol-2-yl)-3-(2-(2-oxoimidazolidin-1-yl)ethoxy)phenyl)-3-methyl-1H-1,2,3-triazol-3-ium 2,2,2-trifluoroacetate trifluoromethanesulfonate], the 50% inhibitory concentration (IC50) in experiment [1] is > 75 µM; in experiment [3], 5.42 ± 0.23 µM. Further, the EC50 in experiment [2] is ≥ 75 µM; in experiment [4], ≥ 75 µM; in experiment [5], 47 ± 2.08 µM; in experiment [6], ≥ 75 µM.
Consider `CC(C)(C)Cc1csc(-c2ccc(-n3cc(CCCCN)nn3)cc2OCCN2CCNC2=O)n1` [Compound 8b, 1-(2-(5-(4-(4-Aminobutyl)-1H-1,2,3-triazol-1-yl)-2-(4-neopentylthiazol-2-yl)phenoxy)ethyl)imidazolidin-2-one 2,2,2 trifluoroacetate], for which the values for the concentration for half-maximal inhibition (IC50) in experiment [1] and in experiment [3] were > 75 µM and 17.2 ± 1.69 µM, respectively. The EC50 in experiment [7] is 30.2 ± 1.7 µM; in experiment [4] it was 18.2 ± 0.4 µM; in experiment [5] it was 45 ± 3.51 µM.
Consider `C[n+]1nn(-c2ccc(-c3nc(CCc4ccc5ccccc5c4)cs3)c(OCCN3CCNC3=O)c2)cc1CCCCN` [Compound 10c, 4-(4-Ammoniobutyl)-3-methyl-1-(4-(4-(2-(naphthalen-2-yl)ethyl)thiazol-2-yl)-3-(2-(2-oxoimidazolidin-1-yl)ethoxy)phenyl)-1H-1,2,3-triazol-3-ium 2,2,2-trifluoroacetate trifluoromethanesulfonate], for which the IC50 amounted to 82.7 ± 2.4 µM in experiment [1] and 2.67 ± 0.13 µM in experiment [3]. Besides, the EC50 in experiment [2] is ≥ 75 µM; in experiment [4] it was 12.9 ± 0.51 µM; in experiment [5], 17.9 ± 3.76 µM; in experiment [6], ≥ 75 µM.
Turning to `NCCCCc1cn(-c2ccc(-c3nc(CCc4ccc(-c5ccccc5)cc4)cs3)c(OCCN3CCNC3=O)c2)nn1` [Compound 8h, 1-(2-(2-(4-(2-([1,1'-Biphenyl]-4-yl)ethyl)thiazol-2-yl)-5-(4-(4-aminobutyl)-1H-1,2,3-triazol-1-yl)phenoxy)ethyl)imidazolidin-2-one 2,2,2 trifluoroacetate], the results for the IC50 in experiment [1] and in experiment [3] were 5.94 ± 0.99 µM and 11.6 ± 2.05 µM, respectively. For the same molecule, the half-maximal effective concentration (EC50) worked out at 45.7 ± 0.6 µM in experiment [2], 13.9 ± 0.93 µM in experiment [4], 5.44 ± 0.44 µM in experiment [5] and 43.1 ± 2.65 µM in experiment [6].
Consider `CC(C)Oc1csc(-c2ccc(-n3cc(CCCCN)nn3)cc2OCCN2CCNC2=O)n1` [Compound 8a, 1-(2-(5-(4-(4-Aminobutyl)-1H-1,2,3-triazol-1-yl)-2-(4-isopropoxythiazol-2-yl)phenoxy)ethyl)imidazolidin-2-one 2,2,2 trifluoroacetate], for which the concentration for half-maximal inhibition (IC50) in experiment [1] (read-out: IC50 dim) was > 75 µM; in experiment [3] (read-out: IC50 act), 50.2 ± 2.37 µM.
The corresponding values for `C[n+]1nn(-c2ccc(-c3nc(-c4ccccc4)c(-c4ccccc4)s3)c(OCCN3CCNC3=O)c2)cc1CCCCN` [Compound 10l, 4-(4-Ammoniobutyl)-1-(4-(4,5-diphenylthiazol-2-yl)-3-(2-(2-oxoimidazolidin-1-yl)ethoxy)phenyl)-3-methyl-1H-1,2,3-triazol-3-ium 2,2,2-trifluoroacetate trifluoromethanesulfonate] are > 75 µM and 9.31 ± 0.92 µM.
Consider `COc1cc(-n2cc(CCCCN)nn2)ccc1-c1nc(CCc2ccccc2)cs1` [Compound 8m, 4-(1-(3-Methoxy-4-(4-phenethylthiazol-2-yl)phenyl)-1H-1,2,3-triazol-4-yl)butan-1-amine 2,2,2 trifluoroacetate], for which the IC50 was found to be 89.2 ± 29.6 µM in experiment [1] and 17.5 ± 2.91 µM in experiment [3]. Further, the EC50 in experiment [4] came to 7.1 ± 0.9 µM; in experiment [5], 9.56 ± 0.44 µM.
For `NCCCc1cn(-c2ccc(-c3nc(CCc4ccccc4)cs3)c(OCCN3CCNC3=O)c2)nn1` [Compound 8n, 1-(2-(5-(4-(3-aminopropyl)-1H-1,2,3-triazol-1-yl)-2-(4-phenethylthiazol-2-yl)phenoxy)ethyl)imidazolidin-2-one 2,2,2 trifluoroacetate], the IC50 in experiment [1] (read-out: IC50 dim) is > 75 µM; in experiment [3] (read-out: IC50 act), 41.2 ± 8.48 µM.
